{"source": "patent US6780853B1", "about": "“Neuroactive steroids of the androstane and pregnane series” (priority 1995, dated 2004)", "key": {"[1]": {"test_system": "STR (strychnine) convulsions", "conditions": "cited from earlier work"}, "[2]": {"test_system": "metrazol induced convulsions", "conditions": "cited from earlier work"}, "[3]": {"test_system": "maximal electroshock tonic seizure", "conditions": "cited from earlier work"}, "[4]": {"test_system": "BIC (bicuclline) convulsions", "conditions": "cited from earlier work"}, "[5]": {"target": "T1, Glucocorticoid Receptors (Rattus norvegicus, UniProt P06536)", "T1 construct": "from tissue; host or cells: rat brain cytosol", "T1 sequence (P06536 1-795)": "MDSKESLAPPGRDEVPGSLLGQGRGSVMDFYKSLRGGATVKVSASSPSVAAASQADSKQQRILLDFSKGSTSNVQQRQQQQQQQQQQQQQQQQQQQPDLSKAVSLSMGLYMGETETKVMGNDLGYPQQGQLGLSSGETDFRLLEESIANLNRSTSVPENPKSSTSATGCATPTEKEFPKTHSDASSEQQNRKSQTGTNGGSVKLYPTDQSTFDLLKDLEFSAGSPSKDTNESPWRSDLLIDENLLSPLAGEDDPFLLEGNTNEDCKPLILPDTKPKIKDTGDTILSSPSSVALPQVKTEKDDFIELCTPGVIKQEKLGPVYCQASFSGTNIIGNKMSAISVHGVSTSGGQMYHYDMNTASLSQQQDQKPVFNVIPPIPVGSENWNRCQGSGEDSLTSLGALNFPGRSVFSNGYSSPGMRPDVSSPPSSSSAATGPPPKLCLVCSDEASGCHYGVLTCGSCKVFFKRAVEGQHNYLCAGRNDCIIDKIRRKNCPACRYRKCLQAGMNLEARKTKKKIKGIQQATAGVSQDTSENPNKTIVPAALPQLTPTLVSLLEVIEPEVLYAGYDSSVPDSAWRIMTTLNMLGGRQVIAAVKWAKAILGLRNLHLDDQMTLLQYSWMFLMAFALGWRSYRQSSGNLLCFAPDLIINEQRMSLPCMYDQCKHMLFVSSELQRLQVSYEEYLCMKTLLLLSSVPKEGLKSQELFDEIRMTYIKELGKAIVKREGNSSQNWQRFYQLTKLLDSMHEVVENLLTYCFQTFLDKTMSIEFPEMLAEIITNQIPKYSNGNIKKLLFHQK", "assay": "Inhibition of 3H-Dexamethasone Binding to Glucocorticoid Receptors", "conditions": "competitor 10^−6M; 3 nM 3H-dexamethasone", "description": "(§1) Various hormonal activities of representative neuroactive steroids were further studied through testing their potential estrogenic, mineralocorticoid and glucocorticoid activities. These activities were analyzed by monitoring the ability of the compounds to inhibit binding of the steroid hormones to their respective hormone receptors.\nFor Table 4, brain cytosol fractions were prepared as for Table 3, and the compounds were incubated with 3 nM of ^3H-dexamethasone (the specific ligand for the glucocorticoid receptor)."}, "[6]": {"target": "T2, Mineralocorticoid Receptors (Rattus norvegicus, UniProt P22199)", "T2 construct": "To isolate the mineralocorticoid receptor, brain cytosol fractions were prepared; from tissue; host or cells: brain (hippocampal) cytosol of adrenalectomized rats", "T2 sequence (P22199 1-981)": "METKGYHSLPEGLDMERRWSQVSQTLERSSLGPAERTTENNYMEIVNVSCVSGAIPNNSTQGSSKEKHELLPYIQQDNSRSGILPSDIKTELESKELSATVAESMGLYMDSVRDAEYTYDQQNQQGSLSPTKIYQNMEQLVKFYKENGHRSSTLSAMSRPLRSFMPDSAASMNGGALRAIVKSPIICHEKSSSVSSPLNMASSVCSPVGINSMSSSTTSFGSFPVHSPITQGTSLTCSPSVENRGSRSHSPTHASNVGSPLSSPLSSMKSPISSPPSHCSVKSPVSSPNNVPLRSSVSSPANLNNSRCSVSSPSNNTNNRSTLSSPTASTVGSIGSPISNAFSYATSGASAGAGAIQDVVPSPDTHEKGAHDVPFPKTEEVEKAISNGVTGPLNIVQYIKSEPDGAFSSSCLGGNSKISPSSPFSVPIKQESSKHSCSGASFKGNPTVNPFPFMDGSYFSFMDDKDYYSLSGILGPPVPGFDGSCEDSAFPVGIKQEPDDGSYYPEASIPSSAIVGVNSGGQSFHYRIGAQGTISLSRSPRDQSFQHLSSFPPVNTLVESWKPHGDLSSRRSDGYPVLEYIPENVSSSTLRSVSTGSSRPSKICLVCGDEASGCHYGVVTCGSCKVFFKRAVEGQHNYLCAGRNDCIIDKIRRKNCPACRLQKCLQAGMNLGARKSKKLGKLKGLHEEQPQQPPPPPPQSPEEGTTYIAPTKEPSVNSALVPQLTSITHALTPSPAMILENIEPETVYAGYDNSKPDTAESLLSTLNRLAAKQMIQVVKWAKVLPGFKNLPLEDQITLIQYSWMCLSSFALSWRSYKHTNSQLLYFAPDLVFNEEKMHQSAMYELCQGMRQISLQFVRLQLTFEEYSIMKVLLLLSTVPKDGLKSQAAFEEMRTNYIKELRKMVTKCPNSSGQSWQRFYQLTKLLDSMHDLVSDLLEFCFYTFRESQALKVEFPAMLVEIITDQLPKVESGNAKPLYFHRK", "assay": "Inhibition of 3H-Aldosterone Binding to Hippocampal Mineralocorticoid Receptors", "conditions": "competitor 10^−6M; 3 nM 3H-aldosterone, RU28362 0.5 μM", "description": "as §1\nIn Table 4, rats were adrenalectornized 3 days prior to sacrifice."}, "[7]": {"test_system": "Progesterone Receptors", "assay": "Inhibition of 3H-Progesterone Binding to the Bovine Uteral Progesterone Receptors", "conditions": "competitor 10^−6M; 3H-progesterone 0.15 nM"}, "[8]": {"target": "T3, Estrogen Receptors (Bos taurus, UniProt P49884)", "T3 construct": "from tissue; host or cells: bovine uterus cytosol", "T3 sequence (P49884 1-596)": "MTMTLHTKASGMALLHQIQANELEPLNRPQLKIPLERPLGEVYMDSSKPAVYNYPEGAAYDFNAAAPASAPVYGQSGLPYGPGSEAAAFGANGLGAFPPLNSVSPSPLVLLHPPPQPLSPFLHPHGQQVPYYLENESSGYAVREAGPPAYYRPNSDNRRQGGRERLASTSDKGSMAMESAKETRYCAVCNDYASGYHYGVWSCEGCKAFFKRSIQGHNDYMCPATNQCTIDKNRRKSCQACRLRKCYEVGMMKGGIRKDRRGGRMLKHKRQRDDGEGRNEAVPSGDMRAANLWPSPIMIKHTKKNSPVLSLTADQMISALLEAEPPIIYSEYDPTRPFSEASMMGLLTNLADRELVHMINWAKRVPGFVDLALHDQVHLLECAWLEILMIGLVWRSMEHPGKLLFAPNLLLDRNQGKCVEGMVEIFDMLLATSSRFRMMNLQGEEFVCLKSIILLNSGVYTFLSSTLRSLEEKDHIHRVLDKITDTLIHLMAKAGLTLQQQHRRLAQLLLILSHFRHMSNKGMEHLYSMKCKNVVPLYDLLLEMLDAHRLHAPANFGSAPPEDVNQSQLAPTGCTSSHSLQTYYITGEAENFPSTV", "assay": "Inhibition of 3H-Estradiol Binding to Bovine Uteral Estrogen Receptors", "conditions": "competitor 10^−6M; 3H-estradiol 0.15 nM", "description": "as §1"}, "[9]": {"test_system": "STR (strychnine) convulsions", "assay": "Chemical convulsant test, strychnine", "format": "in vivo, mice", "conditions": "Mus musculus, read-out: ED50 STR", "excerpt": "(§2) The anticonvulsant tests are similar to that described above."}, "[10]": {"test_system": "hormonal activity", "assay": "Hormonal activity in vivo", "set-up": "species or system animals", "excerpt": "Thus, they wil not have the hormonal side-effects which would be associated with binding to such steroid receptors."}, "[11]": {"test_system": "metrazol induced convulsions", "assay": "Antimetrazol activity in mice", "format": "in vivo", "conditions": "Mus musculus; steroid i.p., convulsant s.c., 50% hydroxypropyl-β-cyclodextrin", "summary_of_the_method": "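Mice dosed with test compounds at various doses 10 minutes before metrazol (85 mg/kg) injection. Each animal observed for 30 minutes, recording time to onset of myoclonus (forelimb clonic activity).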"}, "[12]": {"assay": "Rotorod test (general CNS depression potential)", "set-up": "species or system mice", "conditions": "mouse, in vivo, ip, 50% hydroxypropyl-β-cyclodextrin", "excerpt": "as §2"}, "[13]": {"test_system": "BIC (bicuclline) convulsions", "assay": "Chemical convulsant test, BIC", "format": "in vivo, mice", "conditions": "Mus musculus; steroid i.p., convulsant s.c., 50% hydroxypropyl-β-cyclodextrin", "excerpt": "as §2"}, "[14]": {"test_system": "TBPS", "assay": "Chemical convulsant test, column TBPS", "format": "in vivo, mice", "conditions": "Mus musculus, read-out: ED50 TBPS", "excerpt": "as §2"}, "[15]": {"test_system": "maximal electroshock tonic seizure", "assay": "Maximal electroshock test", "format": "in vivo, mice", "conditions": "Mus musculus, ip, 50% hydroxypropyl-β-cyclodextrin", "excerpt": "as §2"}, "[16]": {"test_system": "TBPS", "conditions": "data from Swinyard & Woodhead 1982; cited from earlier work"}, "[17]": {"conditions": "data from Swinyard & Woodhead 1982; cited from earlier work"}, "[18]": {"conditions": "convulsant i.v., data from Worms et al. 1982"}, "[19]": {"conditions": "data from Swinyard & Woodhead 1982"}}, "note": "Like-named read-outs stand apart in the source and are kept apart here.", "data": [{"smiles": "NC(=O)CCC/N=C(\\c1ccc(Cl)cc1)c1cc(F)ccc1O", "note": "[Progabide]", "values": [{"measurement": "ED50 STR", "setting": "[1]; [18]", "value": 75, "unit": "mg/kg"}, {"measurement": "ED50 PTZ", "setting": "[2]; [18]", "value": 30, "unit": "mg/kg"}, {"measurement": "ED50 MES", "setting": "[3]; data from Worms et al. 1982", "value": 75, "unit": "mg/kg"}, {"measurement": "ED50 BIC", "setting": "[4]; [18]", "value": 30, "unit": "mg/kg"}]}, {"smiles": "C[C@]12CC[C@@H](O)C[C@H]1CC[C@@H]1[C@@H]2CC[C@]2(C)[C@@H](C(=O)CO)CC[C@@H]12", "note": "[5β-pregnan-3α,21-diol-20-one, 5β-pregnan-3α,21-diol-20-one]", "values": [{"measurement": "% of Inhibition", "setting": "[5]", "value": 8.2, "unit": "%"}, {"measurement": "% of Inhibition", "setting": "[6]", "value": 13.8, "unit": "%"}, {"measurement": "% of Inhibition", "setting": "[7]", "value": 6, "unit": "%"}, {"measurement": "% of Inhibition", "setting": "[8]", "value": 0, "unit": "%"}]}, {"smiles": "CC(C)(O)[C@H]1CC[C@H]2[C@@H]3CC[C@H]4C[C@H](O)CC[C@]4(C)[C@H]3CC[C@]12C", "note": "[5α-pregnan-20-dimethyl-3α,20-diol, 5α-pregnan-20-dimethyl-3α,20-diol]", "values": [{"measurement": "% of Inhibition", "setting": "[5]", "value": 2.6, "unit": "%"}, {"measurement": "% of Inhibition", "setting": "[6]", "value": 0, "unit": "%"}, {"measurement": "% of Inhibition", "setting": "[7]", "value": 0, "unit": "%"}, {"measurement": "% of Inhibition", "setting": "[8]", "value": 0, "unit": "%"}]}, {"smiles": "CC(=O)[C@H]1CC[C@H]2[C@@H]3CC[C@H]4C[C@](C)(O)CC[C@]4(C)[C@H]3CC[C@]12C", "note": "[5α-pregnan-3α-ol-3β-methyl-20-one, 3α-hydroxy-3β-methyl-5α-pregnan-20-one]", "values": [{"measurement": "ED50", "setting": "[9]", "value": "> 40", "unit": "mg/kg"}, {"measurement": "hormonal activity when given to animals in vivo", "setting": "[10]", "value": "not to have any hormonal activity"}, {"measurement": "ED50", "setting": "[11]", "value": 4.3, "unit": "mg/kg"}, {"measurement": "ED50 at 10 min", "setting": "[12]", "value": 33.4, "unit": "mg/kg"}, {"measurement": "ED50", "setting": "[13]", "value": 4.6, "unit": "mg/kg"}, {"measurement": "ED50", "setting": "[14]", "value": 11.7, "unit": "mg/kg"}, {"measurement": "ED50", "setting": "[15]", "value": 29.7, "unit": "mg/kg"}, {"measurement": "% of Inhibition", "setting": "[7]", "value": 4, "unit": "%"}]}, {"smiles": "O=C1CN=C(c2ccccc2Cl)c2cc([N+](=O)[O-])ccc2N1", "note": "[Clonazepam]", "values": [{"measurement": "ED50 TBPS", "setting": "[16]", "value": 205, "unit": "mg/kg"}, {"measurement": "ED50 STR", "setting": "[1]; [19]", "value": ">300", "unit": "mg/kg"}, {"measurement": "ED50 RR", "setting": "[17]", "value": 0.184, "unit": "mg/kg"}, {"measurement": "ED50 PTZ", "setting": "[2]; [19]", "value": 0.025, "unit": "mg/kg"}, {"measurement": "ED50 MES", "setting": "[3]; [19]", "value": 111, "unit": "mg/kg"}, {"measurement": "ED50 BIC", "setting": "[4]; [19]", "value": 0.0046, "unit": "mg/kg"}]}]}
